Assay results reported in patent US10131652B2, “Pyrimidinyloxy benzene derivatives as herbicides” (E. I. DU PONT DE NEMOURS AND COMPANY, priority 2014, dated 2018).
Where two headings read alike, the source gives them in different places.

Experiments:
Format in all cases: in vivo
[1] = system: redstem (purple redstem, Ammannia coccinea); experiment: Test G flooded paddy rice/weed plant response; details: Flood, 21 days, scale 0 to 100 (0 no effect, 100 complete control)
From the text: (§1) Three plastic pots (ca. 16-cm diameter) per rate were partially filled with sterilized Tama silt loam soil comprising a 35:50:15 ratio of sand, silt and clay and 2.6% organic matter. Separate plantings for each of the three pots were as follows. Seeds from the U.S. of monochoria (Monochoria vaginalis), small-flower umbrella sedge (Cyperus difformis), hardstem bulrush (Scirpus juncoides), and redstem (purple redstem, Ammannia coccinea), were planted into one 16-cm pot for each rate. Seeds from the U.S. of rice flatsedge (Cyperus iria), bearded sprangletop (Leptochloa fascicularis), one stand of 9 or 10 water seeded rice seedlings (Indica rice, Oryza sativa), and two stands of 3 or 4 transplanted rice seedlings (Oryza sativa cv. ‘Japonica—M202’) were planted into one 16-cm pot for each rate. Seeds from the U.S. of bamyardgrass (Echinochloa crus-galli), and late watergrass (Echinochloa oryzicola) were planted into one 16-cm pot for each rate. Plantings were sequential so that crop and weed species were at the 2.0 to 2.5-leaf stage at time of treatment.
(§2) Potted plants were grown in a greenhouse with day/night temperature settings of 30/27° C., and supplemental balanced lighting was provided to maintain a 16-hour photoperiod. Test pots were maintained in the greenhouse until test completion.
(§3) At time of treatment, test pots were flooded to 3 cm above the soil surface, treated by application of test compounds directly to the paddy water, and then maintained at that water depth for the duration of the test. Effects of treatments on rice and weeds were visually evaluated by comparison to untreated controls after 21 days. Plant response ratings, summarized in Table G, are based on a scale of 0 to 100 where 0 is no effect and 100 is complete control. A dash (-) response means no test result.

[2] = system: bearded sprangletop (Leptochloa fascicularis); experiment: Test G flooded paddy rice/weed plant response; details: Flood, 21 days, scale 0 to 100 (0 no effect, 100 complete control)
From the text: as §1, §2, §3

[3] = system: small-flower umbrella sedge (Cyperus difformis); experiment: Test G flooded paddy rice/weed plant response; details: Flood, 21 days, scale 0 to 100 (0 no effect, 100 complete control)
From the text: as §1, §2, §3

[4] = system: hardstem bulrush (Scirpus juncoides); experiment: Test G flooded paddy rice/weed plant response; details: Flood, 21 days, scale 0 to 100 (0 no effect, 100 complete control)
From the text: as §1, §2, §3

[5] = system: deadnettle (henbit deadnettle, Lamium amplexicaule); experiment: Test E pre-/postemergence plant response; details: scale 0 to 100, read-out: Plant response rating, Deadnettle; for pest or weed control at 16 g/ha: 16 g ai/ha; for pest or weed control at 31 g/ha: 31 g ai/ha; for pest or weed control at 62 g/ha: 62 g ai/ha; for pest or weed control at 125 g/ha: 125 g ai/ha
Outline: (§4)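 Pre-emergence: seeds sown in silt loam soil and sprayed with test chemicals in a non-phytotoxic solvent/surfactant mix. Post-emergence: plants at 2–18 cm (1- to 4-leaf stage) in peat/vermiculite medium treated with the same formulation. Visual rating versus controls after 7–21 days, 0 (no effect) to 100 (complete control).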

[6] = system: downy bromegrass (Bromus tectorum); experiment: Test E pre-/postemergence plant response; details: scale 0 to 100, read-out: Plant response rating, Bromegrass, Downy; for pest or weed control at 16 g/ha: 16 g ai/ha; for pest or weed control at 31 g/ha: 31 g ai/ha; for pest or weed control at 62 g/ha: 62 g ai/ha; for pest or weed control at 125 g/ha: 125 g ai/ha
Outline: as §4

FC(F)c1cc(-c2ccccc2Oc2ncc(Cl)cn2)no1 [Compound 35, 5-chloro-2-[2-[5-(difluoromethyl)-3-isoxazolyl]phenoxy]pyrimidine]
Plant response rating, Redstem ([1]; 32 g ai/ha): 0 | Plant response rating, Redstem ([1]; 64 g ai/ha): 85 | Plant response rating, Redstem ([1]; 125 g ai/ha): 90 | Plant response rating, Redstem ([1]; 250 g ai/ha): 100 | Plant response rating, Sprangletop, Brdd. ([2]; 32 g ai/ha): 60 | Plant response rating, Sprangletop, Brdd. ([2]; 64 g ai/ha): 100 | Plant response rating, Sprangletop, Brdd. ([2]; 125 g ai/ha): 100 | Plant response rating, Sprangletop, Brdd. ([2]; 250 g ai/ha): 100 | Plant response rating, Sedge, Umbrella ([3]; 32 g ai/ha): 0 | Plant response rating, Sedge, Umbrella ([3]; 64 g ai/ha): 98 | Plant response rating, Sedge, Umbrella ([3]; 125 g ai/ha): 100 | Plant response rating, Sedge, Umbrella ([3]; 250 g ai/ha): 100 | Plant response rating, Bulrush, Hardstem ([4]; 32 g ai/ha): 0 | Plant response rating, Bulrush, Hardstem ([4]; 64 g ai/ha): 95 | Plant response rating, Bulrush, Hardstem ([4]; 125 g ai/ha): 100 | Plant response rating, Bulrush, Hardstem ([4]; 250 g ai/ha): 100 | pest or weed control at 16 g/ha ([5]; post-emergence, Postemergence): 40% | pest or weed control at 31 g/ha ([5]; post-emergence, Postemergence): 60% | pest or weed control at 62 g/ha ([5]; post-emergence, Postemergence): 70% | pest or weed control at 125 g/ha ([5]; post-emergence, Postemergence): 80% | pest or weed control at 16 g/ha ([5]; pre-emergence, Preemergence): 35% | pest or weed control at 31 g/ha ([5]; pre-emergence, Preemergence): 80% | pest or weed control at 62 g/ha ([5]; pre-emergence, Preemergence): 95% | pest or weed control at 125 g/ha ([5]; pre-emergence, Preemergence): 95% | pest or weed control at 16 g/ha ([6]; post-emergence, Postemergence): 5% | pest or weed control at 31 g/ha ([6]; post-emergence, Postemergence): 5% | pest or weed control at 62 g/ha ([6]; post-emergence, Postemergence): 15% | pest or weed control at 125 g/ha ([6]; post-emergence, Postemergence): 30% | pest or weed control at 16 g/ha ([6]; pre-emergence, Preemergence): 0% | pest or weed control at 31 g/ha ([6]; pre-emergence, Preemergence): 35% | pest or weed control at 62 g/ha ([6]; pre-emergence, Preemergence): 35% | pest or weed control at 125 g/ha ([6]; pre-emergence, Preemergence): 25%
